Source: patent publication US11135192B2, “Inhibitors for treating diseases characterized by atrial enlargement or remodeling” (Novartis AG, priority 2012, dated 2021)

Assays:
[1] = tested on: patients with heart failure with preserved ejection fraction; assay: Safety and tolerability (adverse events, target dose achieved) in the same HF-PEF study
[2] = tested on: patients with heart failure with preserved ejection fraction; assay: Echocardiography (left atrial and left ventricular measures) in the same HF-PEF study; format: in vivo, human
Description: (§1) The primary study endpoint is the change from baseline in NT-proBNP assessed at 12 weeks, and is analyzed using the last observation after baseline carried forward. Secondary endpoints include changes in echocardiography measures (left ventricular volumes and ejection fraction, left atrial volume, measures of diastolic function), change in blood pressure, as well as change in New York Heart Association Class (NYHA) clinical composite assessment and quality of life (Kansas City Cardiomyopathy Questionnaire).
(§2) Echocardiography studies are performed at screening, randomization, at week 12, and week 36 or at end of study or early termination visits. Echocardiograms performed at screening are evaluated by local readers for qualifying information. All other echocardiograms are only performed in patients meeting NT-proBNP entry criterion and are evaluated centrally. For assessment of global ventricular size and function, left ventricular end-diastolic and end-systolic volumes are obtained utilizing the Simpson's rule method and left ventricular ejection fraction is derived in the usual fashion. Maximal left atrial dimension is measured in the parasternal long-axis view, and left atrial volume is assessed with the Simpson's rule method and indexed to body surface area. Measurements are made in triplicate in accordance with the recommendations of the American Society of Echocardiography. Blood pressure and heart rate are measured at all study visits with a calibrated standard sphygmomanometer and appropriate size cuff. The use of concomitant medication is recorded at each study visit.

[3] = tested on: patients with heart failure with preserved ejection fraction; assay: Blood pressure change in the same HF-PEF study; format: in vivo, human; conditions: mean (SD)
Description: as §1, §2

[4] = tested on: patients with heart failure with preserved ejection fraction; assay: Plasma NT-proBNP in the 37-week randomized, double-blind study of LCZ696 compared to valsartan; format: in vivo, human; conditions: for NT-proBNP (pg/ml) at 12 weeks: 12 weeks / NT-proBNP (pg/ml) at 36 weeks: 36 weeks / NT-proBNP (pg/ml) at 12 weeks: Baseline / NT-proBNP (pg/ml) at 36 weeks: Baseline: geometric mean; for NT-proBNP (pg/ml) at 12 weeks: 12 weeks: after 12 weeks of treatment, target LCZ696 200 mg or valsartan 160 mg twice daily; for NT-proBNP (pg/ml) at 36 weeks: 36 weeks: after 36 weeks of treatment; for NT-proBNP (pg/ml) at 12 weeks: Baseline: baseline of patients analysed at 12 weeks; for NT-proBNP (pg/ml) at 36 weeks: Baseline: baseline of patients analysed at 36 weeks
From the text: Men and women aged 40 years or older with a left ventricular ejection fraction of 45% or above, and a documented history of heart failure with associated signs or symptoms (dyspnea on exertion, orthopnea, paroxysmal dyspnea, and peripheral edema) are eligible. Patients are required to have an NT-proBNP>400 pg/mL at screening, be on diuretic therapy, and have a systolic blood pressure less than 140 mm Hg, or 160 mm Hg or less if on three or more blood pressure medications at randomization. Additional inclusion criteria include an estimated glomerular filtration rate (eGFR) of at least 30 ml/min/1.73 m^2 at screening (calculated by the Modification of Diet in Renal Disease formula) and a potassium of no more than 5.2 mmol/L.
as §1

[5] = tested on: patients with heart failure with preserved ejection fraction
Description: as §1
The clinical composite assessment is based on a composite of the NYHA functional classification, patient global assessment and major adverse clinical events. […] Patients are determined to be worse if at the endpoint visit they experienced a major adverse cardiac event during the double blind treatment or reported worsening of their NYHA class or patient global assessment. Patients are considered unchanged if they are neither improved nor worsened.

[6] = at 36 weeks, no unit printed in b206 (mm Hg)

| SMILES | LA Volume, Δ from Baseline ([2]; at 36 weeks) | LA dimension, Δ from Baseline ([2]; at 36 weeks) | Relative wall thickness, Δ from Baseline ([2]; at 36 weeks) | LA Volume, Baseline ([2]; baseline) | LA dimension, Baseline ([2]; baseline) | diastolic blood pressure reduction ([3]; after 12 weeks of treatment) | systolic blood pressure reduction ([3]; after 12 weeks of treatment) | diastolic blood pressure reduction [3, 6] | systolic blood pressure reduction [3, 6] | NT-proBNP (pg/ml) at 12 weeks: 12 weeks [4] | NT-proBNP (pg/ml) at 36 weeks: 36 weeks [4] | NT-proBNP (pg/ml) at 12 weeks: Baseline [4] | NT-proBNP (pg/ml) at 36 weeks: Baseline [4] | other results |
| --- | --- | --- | --- | --- | --- | --- | --- | --- | --- | --- | --- | --- | --- | --- |
| CCCCC(=O)N(Cc1ccc(-c2ccccc2-c2nnn[nH]2)cc1)[C@H](C(=O)O)C(C)C [Valsartan, (S)—N-valeryl-N-{[2′-(1H-tetrazole-5-yl)-biphenyl-4-yl]-methyl}-valine, reference compound] | 0.37 mL | −0.08 cm | +0.01% | 68.28 mL | 3.73 cm | 2.1 (11) mm Hg | 2.9 (17) mm Hg | 0.34 (11.5) | 1.5 (18) | 835 pg/mL | 607 pg/mL | 862 pg/mL | 822 pg/mL | deaths ([1]; among the serious adverse events): two; adverse event atrial fibrillation, number of patients ([1]; during the trial): 8 patients; adverse event atrial fibrillation, percent of patients ([1]; during the trial): 5.3%; one or more serious adverse events, number of patients ([1]; during the trial): 30 patients; one or more serious adverse events, percent of patients ([1]; during the trial): 20%; Angio-oedema, patients ([1]; the LCZ696 patient did not need admission to hospital): no patients; LA Volume Index, Δ from Baseline ([2]; at 36 weeks): 0.31 ml/m^2; LV mass index, Δ from Baseline ([2]; at 36 weeks): −1.93 g/m^2; LA Volume Index, Baseline ([2]; baseline): 36.80 ml/m^2; LV mass index, Baseline ([2]; baseline): 79.45 g/m^2 |
| CCCCC(=O)N(Cc1ccc(-c2ccccc2-c2nnn[n-]2)cc1)C(C(=O)[O-])C(C)C.CCCCC(=O)N(Cc1ccc(-c2ccccc2-c2nnn[n-]2)cc1)C(C(=O)[O-])C(C)C.CCOC(=O)C(C)CC(Cc1ccc(-c2ccccc2)cc1)NC(=O)CCC(=O)[O-].CCOC(=O)C(C)CC(Cc1ccc(-c2ccccc2)cc1)NC(=O)CCC(=O)[O-].O.O.O.O.O.[Na+].[Na+].[Na+].[Na+].[Na+].[Na+] [LCZ696, trisodium [3-((1S,3R)-1-biphenyl-4-ylmethyl-3-ethoxycarbonyl-1-butylcarbamoyl) propionate-(S)-3′-methyl-2′-(pentanoyl(2″-(tetrazol-5-ylate)biphenyl-4′-ylmethyl)amino)butyrate]hemipentahydrate] | -4.61 mL | −0.15 cm | +0.01% | 65.26 mL | 3.68 cm | 4.9 (10) mm Hg | 9.3 (SD 14) mm Hg | 5.1 (10.8) | 7.5 (15) | 605 pg/mL | 496 pg/mL | 783 pg/mL | 763 pg/mL | Left atrial volume (result in words) ([2]; after 36 weeks of treatment, p=0.003): reduced significantly; left atrial dimension (result in words) ([2]; after 36 weeks of treatment, p=0.034): reduced significantly; reduction in NT-proBNP in patients with diabetes compared with patients without diabetes ([4]; 12 weeks, prespecified subgroup, interaction p=0.02): differentially greater reduction; reduction in NT-proBNP versus valsartan after adjustment for the change in blood pressure ([4]; 12 weeks, p=0.01): greater reduction; NT-proBNP versus baseline ([4]; 36 weeks): remained reduced from baseline; early reduction in NT-proBNP compared with the valsartan group ([4]; after 4 weeks of treatment, p=0.083): not significant; NYHA class improvement between groups ([5]; at 12 weeks, p=0.11): did not differ significantly; NYHA class compared with the valsartan group ([5]; at 36 weeks, p=0.05): improvement |
